In patent publication US9481667B2, “Salts and solid forms of isoquinolinones and composition comprising and methods of using the same” (Infinity Pharmaceuticals, Inc., priority 2013, dated 2016):
≈ marks a conversion by molar mass, not a printed value. Structures can show the parent of a compound that is named as a salt. One block for each compound: values may come before it.

What was measured:
Assay type in all cases: physicochemical
[1] = Storage at 40° C./75% RH (solid-state stability); details: for Stability on storage at 40° C./75% RH: 1 week, solid form by XRPD
Description: The crystalline solids were filtered, dried at ambient conditions, and stored at 40° C./75% RH for 1 week and analyzed by ^1H NMR/IC.
Samples from the screen using amorphous free base Compound 1 were analysed by ^1H-NMR and DSC, and re-analysis by XRPD was also carried out after drying at 50° C./vacuum and storage at 40° C./75% RH (the same sample was dried and stored at elevated humidity).

[2] = Storage at 25° C./93% RH (solid-state stability); details: for Stability on storage at 25° C./93% RH: 1 week, solid form by XRPD
[3] = Free base solubility assessment in solvents
Description: Approximately 11 mg (0.022 mmol) portions of the free base Form 1 of Compound 1 (i.e., the compound of formula (I)) were weighed into 2 ml screw-topped HPLC vials. One of 15 solvents was added to each vial in a number of aliquots (up to 100 volumes), with shaking and if necessary with heating to 40° C., in an attempt to achieve dissolution.

[4] = Thermodynamic aqueous solubility; details: aqueous, thermodynamic from solid
[5] = Gravimetric vapour sorption (GVS)
Description: Sorption isotherms were obtained using a Hiden IGASorp moisture sorption analyser, controlled by CFRSorp software. The sample temperature was maintained at 25° C. by a Huber re-circulating water bath. The humidity was controlled by mixing streams of dry and wet nitrogen, with a total flow rate of 250 ml/min. The relative humidity (RH) was measured by a calibrated Vaisala RH probe (dynamic range of 0-95% RH), located near the sample. The weight change, (mass relaxation) of the sample as a function of % RH was constantly monitored by the microbalance (accuracy ±0.001 mg). Typically 10-20 mg of sample was placed in a tared mesh stainless steel basket under ambient conditions. The sample was loaded and unloaded at 40% RH and 25° C. (typical room conditions). A moisture sorption isotherm was performed as outlined below (2 scans giving 1 complete cycle). The standard isotherm was performed at 25° C. at 10% RH intervals over a 0-90% RH range.
The software uses a least squares minimisation procedure together with a model of the mass relaxation, to predict an asymptotic value. The measured mass relaxation value must be within 5% of that predicted by the software, before the next % RH value is selected. The minimum equilibration time was set to 1 hour and the maximum to 4 hours. The sample was recovered after completion of the isotherm and re-analysed by XRPD.

[6] = Stability on standing at ambient/room conditions
Excerpt: The bis-sulfuric acid salt is difficult to crystallise in an anhydrous environment. The experiment in methanol produced a clear solution, which then became an oil after solvent evaporation.

[7] = listed as amorphous free base Compound 1
[8] = listed as Compound 1 Free Base Form 1

Stability on storage at 40° C./75% RH [1, 7]: No changes after 1 week
Storage at elevated humidity ([1]; elevated humidity conditions, solid form): No crystallisation
Stability on storage at 25° C./93% RH [2, 7]: No changes after 1 week
Structure (SMILES): COc1cc(-c2cccc3cc([C@H](C)Nc4nc(N)ncc4C#N)n(-c4ccccc4)c(=O)c23)ccn1 [amorphous free base of Compound 1, (S)-2-amino-4-((1-(8-(2-methoxypyridin-4-yl)-1-oxo-2-phenyl-1,2-dihydroisoquinolin-3-yl)ethyl)amino)pyrimidine-5-carbonitrile]

solvent volumes to dissolve ([3]; 2-MeTHF, free base Form 1, shaking, if necessary heating to 40° C.): 50 vol.
solvent volumes to dissolve ([3]; DMSO, free base Form 1, shaking, if necessary heating to 40° C.): 5 vol.
solvent volumes to dissolve ([3]; EtOAC, free base Form 1, did not dissolve in up to 100 vol.): > 100 vol.
solvent volumes to dissolve ([3]; EtOH/H2O, free base Form 1, did not dissolve in up to 100 vol.): > 100 vol.
solvent volumes to dissolve ([3]; EtOH, free base Form 1, did not dissolve in up to 100 vol.): > 100 vol.
solvent volumes to dissolve ([3]; H2O, free base Form 1, did not dissolve in up to 100 vol.): > 100 vol.
solvent volumes to dissolve ([3]; MIBK, free base Form 1, shaking, if necessary heating to 40° C.): 40 vol.
solvent volumes to dissolve ([3]; MeOH/anisole (50/50 v/v), free base Form 1, shaking, if necessary heating to 40° C.): 10 vol.
solvent volumes to dissolve ([3]; MeOH, free base Form 1, shaking, if necessary heating to 40° C.): 75 vol.
solvent volumes to dissolve ([3]; TBME, free base Form 1, did not dissolve in up to 100 vol.): > 100 vol.
solvent volumes to dissolve ([3]; THF, free base Form 1, shaking, if necessary heating to 40° C.): 40 vol.
solvent volumes to dissolve ([3]; acetone, free base Form 1, did not dissolve in up to 100 vol.): > 100 vol.
solvent volumes to dissolve ([3]; acetonitrile, free base Form 1, did not dissolve in up to 100 vol.): > 100 vol.
solvent volumes to dissolve ([3]; anisole, free base Form 1, did not dissolve in up to 100 vol.): > 100 vol.
solvent volumes to dissolve ([3]; chloroform, free base Form 1, shaking, if necessary heating to 40° C.): 40 vol.
Structure (SMILES): COc1cc(-c2cccc3cc([C@H](C)Nc4nc(N)ncc4C#N)n(-c4ccccc4)c(=O)c23)ccn1 [Compound 1, (S)-2-amino-4-((1-(8-(2-methoxypyridin-4-yl)-1-oxo-2-phenyl-1,2-dihydroisoquinolin-3-yl)ethyl)amino)pyrimidine-5-carbonitrile]

Stability on storage at 40° C./75% RH [1]: stable
Stability on storage at 40° C./75% RH [1, 8]: No changes in form after 1 week
Stability on storage at 40° C./75% RH ([1]; listed as Free base Form 1): did not show any changes
solubility thermodynamic ([4]; water, at pH 6.85): 0.004 mg/mL (≈ 8.17 µM)
RH range in which hydration to Form 3 occurs [5]: 80-90 % RH
GVS: moisture on loading ([5]; loaded at 40% RH, 25° C., listed as Compound 1 Free Base Form 1): 0.7 % w/w
Stability on storage at 25° C./93% RH [2]: converts to Form 3
Stability on storage at 25° C./93% RH [2, 8]: Conversion to Form 3 (FIG. 31)
Stability on storage at 25° C./93% RH ([2]; listed as Free base Form 1): conversion to Form 3
Structure (SMILES): COc1cc(-c2cccc3cc([C@H](C)Nc4nc(N)ncc4C#N)n(-c4ccccc4)c(=O)c23)ccn1 [Form 1 of the free base of Compound 1, (S)-2-amino-4-((1-(8-(2-methoxypyridin-4-yl)-1-oxo-2-phenyl-1,2-dihydroisoquinolin-3-yl)ethyl)amino)pyrimidine-5-carbonitrile]
GVS: form change with humidity ([5]; above 80% RH, listed as Free base Form 1): hydrates to a higher hydrate above 80% RH, but this re-converts to Form 1 on desorption

Storage 40° C./75% RH for 1 week: HPLC Purity ([1]; 0.5 g scale-up salts): HPLC Purity: Unchanged
Storage 40° C./75% RH for 1 week: XRPD (D8) ([1]; 0.5 g scale-up salts): XRPD (D8): Unchanged
Stability on storage at 40° C./75% RH [1]: stable
Stability on storage at 40° C./75% RH ([1]; listed as mono-1,2-ethanedisulfonic acid salt): stable
XRPD post GVS (C2) ([5]; 0.5 g scale-up salts): Unchanged
GVS Single cycle ([5]; hygroscopicity, 25° C., 0-90% RH): Moderately hygroscopic
Storage 25° C./93% RH for 1 week: HPLC Purity ([2]; 0.5 g scale-up salts): HPLC Purity: Unchanged
Storage 25° C./93% RH for 1 week: XRPD (D8) ([2]; 0.5 g scale-up salts): XRPD (D8): Unchanged
Structure (SMILES): COc1cc(-c2cccc3cc([C@H](C)Nc4nc(N)ncc4C#N)n(-c4ccccc4)c(=O)c23)ccn1 [Form 1 of the 1,2-ethanedisulfonic acid salt of Compound 1] [(S)-2-amino-4-((1-(8-(2-methoxypyridin-4-yl)-1-oxo-2-phenyl-1,2-dihydroisoquinolin-3-yl)ethyl)amino)pyrimidine-5-carbonitrile]

Crystallinity after standing ([6]; RT, 24 hours): decreases
Stability at ambient conditions ([6]; converts to Form 1 by hydration): unstable
solubility thermodynamic ([4]; pH 1.9, water, 0.5 g scale-up salts, pH of solution reported separately): 1.9 mg/mL
Structure (SMILES): COc1cc(-c2cccc3cc([C@H](C)Nc4nc(N)ncc4C#N)n(-c4ccccc4)c(=O)c23)ccn1 [(S)-2-amino-4-((1-(8-(2-methoxypyridin-4-yl)-1-oxo-2-phenyl-1,2-dihydroisoquinolin-3-yl)ethyl)amino)pyrimidine-5-carbonitrile]

Stability at 40° C./75% RH ([1]; after 1 week): Very slight changes
Stability at 25° C./93% RH ([2]; after 1 week): Very slight changes
Structure (SMILES): CC(=O)O.COc1cc(-c2cccc3cc([C@H](C)Nc4nc(N)ncc4C#N)n(-c4ccccc4)c(=O)c23)ccn1.COc1cc(-c2cccc3cc([C@H](C)Nc4nc(N)ncc4C#N)n(-c4ccccc4)c(=O)c23)ccn1 [Batch 2 of Form 6]
